Experimental data reported in patent US12220417B2, “Pharmaceutical compositions comprising (S)-2-(2,6-dioxopiperidin-3-yl)-4-((2-fluoro-4-((3-morpholinoazetidin-1-yl)methyl)benzyl)amino)isoindoline-1,3-dione and methods of using the same” (Celgene Corporation, priority 2019, dated 2025).

Key:
[1] = Solubility of Compound 1; type: physicochemical; details: compared to the low dose / proposed dose levels
[2] = tested on: ROS-50; assay: Flow cytometry viability/apoptosis assay, ROS-50; type: cell-based; details: ROS-50, DLBCL; 120 hours; read-out: % Viable Cells IC50
Experimental: (§1) Cell Proliferation and Viability Assay Using Hematological Cell Lines: The following exemplary anti-proliferative assay uses exemplary hematological cell lines in the following. The in vitro growth inhibitory activity of Compound 1 described herein was evaluated using a 384-well flow cytometry assay.
(§2) The cell lines were plated in 384-well flat bottom plates and assessed with increasing concentrations of compound ranging from 0.00015 to 10 μM or dimethyl sulfoxide (DMSO) control. The final concentration of DMSO was 0.1% (v/v). Following the addition of Compound 1 or DMSO and incubation for 120 hours, cell number and cell death were analyzed by flow cytometry (Attune®, Thermo Fisher) using Annexin V and the live-cell impermeant DNA dye, DRAQ7. […]
(§3) Flow cytometry data analysis was then performed using the Flow Jo_v10 software to determine the number of viable cells (Annexin V and DRAQ7 double negative staining cells) and percentage of apoptotic cells (Annexin V positive cells) for each condition. […] The IC50 (50% inhibitory concentration) and Emax (maximum efficacy achieved) values were then calculated by performing nonlinear regression curve fitting using log(inhibitor) vs. normalized response—variable slope analysis on GraphPad Prism 7.03. Area under the curve (AUC) was calculated by performing area under curve analysis on GraphPad Prism 7.03. […]

[3] = tested on: DB; assay: Flow cytometry viability/apoptosis assay, DB; type: cell-based; details: Homo sapiens, DLBCL GCB, 120 hours, read-out: % Viable Cells IC50
Experimental: as §1, §2, §3

[4] = tested on: OCI-LY3; assay: Flow cytometry viability/apoptosis assay, OCI-LY3; type: cell-based; details: Homo sapiens; OCI-LY3, DLBCL ABC; 120 hours; read-out: % Viable Cells IC50
Experimental: as §1, §2, §3

[5] = tested on: WA-OSEL; assay: Flow cytometry viability/apoptosis assay, WA-OSEL; type: cell-based; details: CLL, 120 hours, read-out: % Viable Cells IC50
Experimental: as §1, §2, §3

[6] = tested on: PGA1; assay: Flow cytometry viability/apoptosis assay, PGA1; type: cell-based; details: PGA1, CLL; 120 hours; read-out: % Viable Cells IC50
Experimental: as §1, §2, §3

[7] = tested on: HG3; assay: Flow cytometry viability/apoptosis assay, HG3; type: cell-based; details: HG-3; HG3, CLL; 120 hours; read-out: % Viable Cells IC50
Experimental: as §1, §2, §3

[8] = tested on: CII; assay: Flow cytometry viability/apoptosis assay, CII; type: cell-based; details: CLL, 120 hours, read-out: % Viable Cells IC50
Experimental: as §1, §2, §3

[9] = tested on: Mec1; assay: Flow cytometry viability/apoptosis assay, Mec1; type: cell-based; details: Homo sapiens; Mec1, CLL; 120 hours; read-out: % Viable Cells IC50
Experimental: as §1, §2, §3

[10] = tested on: hematological cell lines; assay: Cell Proliferation and Viability Assay Using Hematological Cell Lines (whole panel); type: cell-based; details: panel of hematological cell lines, 0.00015 to 10 μM, 5 days
Experimental: as §1, §2, §3

| Structure (SMILES) | solubility [1] | IC50 [2] [µM] | IC50 [3] [µM] | IC50 [4] [µM] | IC50 [5] [µM] | IC50 [6] [µM] | IC50 [7] [µM] | IC50 [8] [µM] | IC50 [9] [µM] | antiproliferative activity and/or apoptotic effects [10] |
| --- | --- | --- | --- | --- | --- | --- | --- | --- | --- | --- |
| Cl.O=C1CC[C@H](N2C(=O)c3cccc(NCc4ccc(CN5CC(N6CCOCC6)C5)cc4F)c3C2=O)C(=O)N1 [Compound 1 HC, salt] | relatively high |  |  |  |  |  |  |  |  |  |
| O=C1CC[C@H](N2C(=O)c3cccc(NCc4ccc(CN5CC(N6CCOCC6)C5)cc4F)c3C2=O)C(=O)N1 [Compound 1, (S)-2-(2,6-dioxopiperidin-3-yl)-4-((2-fluoro-4-((3-morpholinoazetidin-1-yl)methyl)benzyl)amino)isoindoline-1,3-dione] | relatively high | ≥ 10 | ≥ 10 | ≥ 10 | ≥ 10 | ≥ 10 | ≥ 10 | ≥ 10 | ≥ 10 | antiproliferative activity and/or apoptotic effects in almost all hematological cell lines tested |
